# “And” between values parts separate entries of the source, which are not always exact repeats. Equal values may be shown once.
# Test: solvent given as SMILES
structure (smiles),measurement,setting,value
N#CC(C#N)=Cc1cn(-c2ccccc2)nc1-c1ccccc1,emission maximum,in C1CCOC1,427 nm
same,emission maximum,in C1COCCO1,426 nm
same,emission maximum,in CCO,426 nm
same,emission maximum,in CCOC(C)=O,427 nm
same,emission maximum,in CN(C)C=O,438 nm
same,emission maximum,in CO,426 nm
same,emission maximum,in CS(C)=O,443 nm
same,emission maximum,in Cc1ccccc1,430 nm
same,emission maximum,in ClC(Cl)Cl,432 nm
same,emission maximum,in ClCCl,430 nm
CC(=O)Nc1ccc(C2=C/C(=C\c3ccc([N+](=O)[O-])cc3)C(=O)O2)cc1,emission maximum,in C1COCCO1,550 nm
Cc1cc(C)c2c(c1)nc1c(=O)n(C)c(=O)nc-1n2C,emission maximum,in CC#N,552 nm
COc1cc(-c2nc(-c3ccccc3)c3ccccn23)ccc1O,emission maximum,in CC#N,489 nm
Cc1cc(=O)[nH]c(=O)[nH]1,emission maximum,in CC#N,308 nm
CN1CCN(c2ccc3c4c(cccc24)C(=O)c2ccccc2-3)CC1,emission maximum,in C1CCCCC1,533 nm
same,emission maximum,in C1CCOC1,593 nm
same,emission maximum,in C1COCCO1,584 nm
same,emission maximum,in CC1COC(=O)O1,619 nm
same,emission maximum,in CC#N,619 nm
same,emission maximum,in CC(C)=O,615 nm
same,emission maximum,in CCCCCCCCO,626 nm
same,emission maximum,in CCCCCO,635 nm
same,emission maximum,in CCCCO,632 nm
same,emission maximum,in CCCO,637 nm
same,emission maximum,in CCO,640 nm
same,emission maximum,in CCOC(C)=O,595 nm
same,emission maximum,in CN(C)C=O,621 nm
same,emission maximum,in CO,645 nm
same,emission maximum,in CS(C)=O,624 nm
same,emission maximum,in Cc1ccccc1,569 nm
same,emission maximum,in ClC(Cl)Cl,601 nm
CC(C)(C)c1ccc2c(c1)c1cc(C(C)(C)C)ccc1n2-c1cc[n+]2c(c1)-c1ccccc1O[B-]2(F)F,emission maximum,in Cc1ccccc1,473 nm
same,emission maximum,in O=P(c1ccccc1)(c1ccccc1)c1ccccc1Oc1ccccc1P(=O)(c1ccccc1)c1ccccc1,488 nm
c1ccc(C2(c3ccccc3)c3ccccc3N(c3ccc(-c4nc([C@]56CC7CC(C[C@@H](C7)C5)C6)nc([C@]56C[C@H]7C[C@@H](C[C@H](C7)C5)C6)n4)cc3)c3ccccc32)cc1,emission maximum,in CC(C)(C)c1ccc(-n2c3ccc([Si](c4ccccc4)(c4ccccc4)c4ccccc4)cc3c3cc([Si](c4ccccc4)(c4ccccc4)c4ccccc4)ccc32)cc1,445.29 nm
same,emission maximum,in Cc1ccccc1,451.05 nm
C[Si]1(C)c2ccccc2-c2ccccc21,emission maximum,in ClCCl,359 nm
CCCCCCCCCCCCCCCCCCOC(=O)/C=C/C1=CC2=C(c3c(C)cc(C)cc3C)c3cc(/C=C/C(=O)OCCCCCCCCCCCCCCCCCC)cn3[B-](F)(F)[N+]2=C1,emission maximum,in ClCCl,606 nm
N#Cc1cc2ccccc2[nH]1,emission maximum,in C1CCOC1,328 nm
same,emission maximum,in C1COCCO1,329 nm
same,emission maximum,in CC#N,330 nm
same,emission maximum,in CC(C)O,332 nm
same,emission maximum,in CCO,334 nm
same,emission maximum,in CO,335 nm
same,emission maximum,in CS(C)=O,335 nm
same,emission maximum,in O,350 nm
same,emission maximum,in OCC(F)(F)F,339 nm
c1ccc(-c2nc(-c3ccccc3)nc(-c3ccc(-n4c5ccc(-c6ccc7sc8ccccc8c7c6)cc5c5cc(-c6ccc7sc8ccccc8c7c6)ccc54)cc3)n2)cc1,emission maximum,in CCOC(C)=O,473 nm
same,emission maximum,in CN(C)C=O,531 nm
same,emission maximum,in Cc1ccccc1,437 nm
CCOC(=O)/C(C#N)=C\c1ccc2c(c1)c1ccccc1n2-c1ccc(C)cc1,emission maximum,in C1CCOC1,461 nm
same,emission maximum,in CC#N,508 nm
same,emission maximum,in CC(C)=O,503 nm
same,emission maximum,in CCOC(C)=O,460 nm
same,emission maximum,in CO,495 nm
same,emission maximum,in CS(C)=O,503 nm
same,emission maximum,in Cc1ccccc1,444 nm
same,emission maximum,in ClC(Cl)Cl,482 nm
CCCn1c(=O)c(/C=C/c2nc3ccc(C)cc3n(CCC)c2=O)nc2ccc(C)cc21,emission maximum,in C1COCCO1,484 nm
same,emission maximum,in CC#N,502 nm
same,emission maximum,in ClCCl,490 nm
COC(=O)C(N)Cc1ccc(O[Si]2(Oc3ccc(CC(N)C(=O)OC)cc3)n3c4c5ccccc5c3/N=C3N=C(/N=c5/c6ccccc6/c(n52)=N/C2=NC(=N\4)/c4ccccc42)c2ccccc2\3)cc1 (configuration not stated),emission maximum,in CN(C)C=O,687 nm
CCn1c2ccccc2c2ccc(C#N)cc21,emission maximum,in C1CCCCC1,373 nm
[O-][n+]1c(/C=C/C=C/c2ccccc2)nc(N2CCOCC2)c2c1CCCC2,emission maximum,in ClCCl,546 nm
CCCCc1cc(-c2cccc(COC)c2)oc1-c1cccc(-c2cc(CCCC)c(-c3cccc(-c4cc(CCCC)c(-c5cccc(-c6oc(-c7cccc(-c8oc(-c9cccc(-c%10oc(-c%11cccc(COC)c%11)cc%10CCCC)c9)cc8CCCC)c7)cc6CCCC)c5)o4)c3)o2)c1,emission maximum,in ClC(Cl)Cl,374 nm
Cc1ccc2cc3c(=O)n(C)c(=O)n(C)c3nc2c1,emission maximum,in CC#N,405 nm
same,emission maximum,in CC(C)O,408 nm
same,emission maximum,in CCO,409 nm
same,emission maximum,in CO,409 nm
same,emission maximum,in ClC(Cl)Cl,406 nm
same,emission maximum,in ClCCl,405 nm
CC(C)c1cc(C(C)C)c(B2c3cc(N4c5ccccc5C(C)(C)c5ccccc54)ccc3N(c3ccccc3)c3ccc(N4c5ccccc5C(C)(C)c5ccccc54)cc32)c(C(C)C)c1,emission maximum,in C1CCOC1,485.71 nm
same,emission maximum,in CCOC(C)=O,481.97 nm
same,emission maximum,in Cc1ccccc1,469.39 nm
same,emission maximum,in ClCCl,494.56 nm
same,emission maximum,in c1cc(-c2cccc(-n3c4ccccc4c4ccccc43)c2)cc(-n2c3ccccc3c3ccccc32)c1,469 nm
O=C1CCCC2=C1C(c1ccc([N+](=O)[O-])cc1)c1c(c3ccccc3oc1=O)N2 (configuration not stated),emission maximum,in CS(C)=O,441 nm
CC(C)[Si](C#Cc1c2nsnc2c(C#C[Si](C(C)C)(C(C)C)C(C)C)c2nc3c(ccc4ccccc43)nc12)(C(C)C)C(C)C,emission maximum,in CCCCCC,617 nm
COc1ccc(/C=C(\C)c2nc3ccccc3o2)cc1,emission maximum,in C1CCCCC1,380 nm
same,emission maximum,in CO,400 nm
NNC(=O)c1ccc(/C=C/c2ccc(C(=O)NN)cc2)cc1,emission maximum,in CN(C)C=O,395 nm
CCCCn1c2ccc(-c3ccccc3)cc2c2ccc3c4cc(-c5ccccc5)ccc4n(CCCC)c3c21,emission maximum,in ClC(Cl)Cl,414 nm
Nc1ccc2nc(-c3ccccc3)c(=O)oc2c1,emission maximum,in c1ccccc1,480 nm
CCn1c2ccc(-c3ccc(-c4cccs4)s3)cc2c2cc(-c3ccc(-c4cccs4)s3)ccc21,emission maximum,in ClCCl,430 nm
O=C1c2cccc3c(-n4c5ccccc5c5ccccc54)ccc(c23)C(=O)N1c1ccccc1,emission maximum,in C1CCOC1,546 nm
same,emission maximum,in CCCCCC,443 nm
same,emission maximum,in ClC(Cl)Cl,495 nm
same,emission maximum,in ClCCl,568 nm
CCCCCCCCOc1ccc(C#Cc2c3cc4ccccc4cc3c(C#C[Si](C(C)C)(C(C)C)C(C)C)c3cc4ccccc4cc23)cc1,emission maximum,in ClCCl,666 nm
C1=Cc2nc1c(-c1ccccc1)c1ccc([nH]1)c(-c1ccccc1)c1cc(c(-c3ccccc3)c3ccc([nH]3)c2-c2ccccc2)N=C1,emission maximum,in ClCCl,744 nm
[O-][n+]1c(/C=C/c2ccc(/C=C/c3ccccc3)cc2)nc(N2CCOCC2)c2c1CCCC2,emission maximum,in ClCCl,531 nm
CN(C)c1ccc(/C=C/c2cc[n+](C)cc2)cc1,emission maximum,in C1CCOC1,590 nm
same,emission maximum,in CC1COC(=O)O1,600 nm
same,emission maximum,in CC#N,625 nm and 605 nm
same,emission maximum,in CC(C)=O,602 nm
same,emission maximum,in CC(C)O,591 nm
same,emission maximum,in CCO,594 nm
same,emission maximum,in CCOC(C)=O,595 nm
same,emission maximum,in CN(C)C=O,596 nm
same,emission maximum,in CO,596 nm
same,emission maximum,in CS(C)=O,610 nm
same,emission maximum,in ClC(Cl)Cl,585 nm
same,emission maximum,in ClCCl,608 nm
same,emission maximum,in O,624 nm and 597 nm
same,emission maximum,in c1ccncc1,605 nm
O=C(Cc1ccccc1)OCc1ccc2c3cccc4cccc(c5cccc1c52)c43,emission maximum,in CCO,445 nm
CC(C)(C)c1cc(-n2c(-c3ccc(C(=C(c4ccccc4)c4ccccc4)c4ccccc4)cc3)cc3c2cc(-c2ccc(C(=C(c4ccccc4)c4ccccc4)c4ccccc4)cc2)n3-c2cc(C(C)(C)C)cc(C(C)(C)C)c2)cc(C(C)(C)C)c1,emission maximum,in ClCCl,586 nm
CC(C)c1cccc(C(C)C)c1N1C(=O)c2cccc3c(Oc4ccc(C(C)(C)c5ccccc5)cc4)ccc(c23)C1=O,emission maximum,in ClCCl,435 nm

# Source: the Deep4Chem optical property database
